Results as given in ChEMBL document CHEMBL1148043, “Alectosarmentin, a new antimicrobial dibenzofuranoid lactol from the lichen, Alectoria sarmentosa” (1994).
Calls of active or inactive are those of the source. No cut-off for these calls is given here.

What was measured:
[1] = system: Mycolicibacterium smegmatis; experiment: Antimicrobial activity against Mycobacterium smegmatis ATCC 607 by agar-dilution streak method; format: functional
[2] = system: Staphylococcus aureus; experiment: Antimicrobial activity against Staphylococcus aureus ATCC 13709 by agar-dilution streak method; format: functional
[3] = system: Escherichia coli; experiment: Antimicrobial activity against Escherichia coli ATCC 9637 at 100 ug/ml by agar-dilution streak method; format: functional, organism-based
[4] = system: Salmonella enterica subsp. enterica serovar Gallinarum; experiment: Antimicrobial activity against Salmonella gallinarum ATCC 9184 at 100 ug/ml by agar-dilution streak method; format: functional, organism-based
[5] = system: Klebsiella pneumoniae; experiment: Antimicrobial activity against Klebsiella pneumoniae ATCC 10031 at 100 ug/ml by agar-dilution streak method; format: functional, organism-based
[6] = system: Candida albicans; experiment: Antimicrobial activity against Candida albicans ATCC 10231 by agar-dilution streak method; format: functional
[7] = system: Pseudomonas aeruginosa; experiment: Antimicrobial activity against Pseudomonas aeruginosa ATCC 27853 at 100 ug/ml by agar-dilution streak method; format: functional, organism-based
[8] = system: Candida albicans; experiment: Antimicrobial activity against Candida albicans ATCC 10231 at 100 ug/ml by agar-dilution streak method; format: functional, organism-based
[9] = system: Klebsiella pneumoniae; experiment: Antimicrobial activity against Klebsiella pneumoniae ATCC 10031 by agar-dilution streak method; format: functional
[10] = system: Escherichia coli; experiment: Antimicrobial activity against Escherichia coli ATCC 9637 by agar-dilution streak method; format: functional
[11] = system: Salmonella enterica subsp. enterica serovar Gallinarum; experiment: Antimicrobial activity against Salmonella gallinarum ATCC 9184 by agar-dilution streak method; format: functional

Compound | Activity [1] [µg/mL] | Activity [2] [µg/mL] | Activity [3] | Activity [4] | Activity [5] | Activity [6] [µg/mL] | Activity [7] | Activity [8] | Activity [9] [µg/mL] | Activity [10] [µg/mL] | Activity [11] [µg/mL]
CC(=O)C1=C(O)C=C2Oc3c(C(C)=O)c(O)c(C)c(O)c3[C@]2(C)C1=O [(-)-USNIC ACID] | 6.25 | 25 | inactive | inactive | inactive | 50 | inactive | – | – | – | –
CCCCCC(=O)Cc1cc(O)cc2c1C(=O)Oc1cc(O)c(C(=O)O)c(CCCCC)c1O2 [PHYSODIC ACID] | 100 | 25 | inactive | inactive | inactive | – | inactive | inactive | – | – | –
CN[C@@H]1[C@H](O[C@H]2[C@H](O[C@H]3[C@H](O)[C@@H](O)[C@H](N=C(N)N)[C@@H](O)[C@@H]3N=C(N)N)O[C@@H](C)[C@]2(O)C=O)O[C@@H](CO)[C@H](O)[C@H]1O.CN[C@@H]1[C@H](O[C@H]2[C@H](O[C@H]3[C@H](O)[C@@H](O)[C@H](N=C(N)N)[C@@H](O)[C@@H]3N=C(N)N)O[C@@H](C)[C@]2(O)C=O)O[C@@H](CO)[C@H](O)[C@H]1O.O=S(=O)(O)O.O=S(=O)(O)O.O=S(=O)(O)O [STREPTOMYCIN SULFATE] | 1.25 | 5 | – | – | – | – | inactive | inactive | 2.5 | 5 | 50
CCCCCc1cc2cc(O)cc(Oc3c(O)cc(O)c4c3CC(CCCCC)(OCC)OC4=O)c2c(=O)o1 (stereo not given) | 50 | 50 | inactive | inactive | inactive | 100 | inactive | – | – | – | –
Cc1cc(O)cc2oc3cc(O)c4c(c3c12)C(O)OC4=O (stereo not given) [ALECTOSARMENTIN] | 25 | 25 | inactive | inactive | inactive | – | inactive | inactive | – | – | –
